Assay results published in patent US20150203474A1, “SOLID FORMS COMPRISING INHIBITORS OF HCV NS5A, COMPOSITIONS THEREOF, AND USES THEREWITH” (PRESIDIO PHARMACEUTICALS ,INC., priority 2012, published 2015).
Read-outs that look alike come from different tables or passages of the source.

Assays:
[1] = PK study of Form A of Compound I in rats; format: in vivo; settings: male, Sprague-Dawley, rat, plasma, po, 75 mg/kg, single PO dose of 75 mg/kg, male SD rats
Experimental: The pharmacokinetics (PK) properties of Form A of Compound I and Form I of Compound II were determined in a series of comprehensive experiments in preclinical species including Sprague-Dawley rats, beagle dogs, cynomolgus monkeys. In those studies, the Form A crystalline salt of Compound I (and Form I crystalline salt of Compound II) was formulated in saline, 0.5% MC in saline or other commonly used suitable formulation vehicles to give a clear solution or as a suspension or a paste depending on the concentration intended to reach and the choice of vehicles. Dosing was by oral gavage. Blood samples were drawn and placed into individual tube containing K2EDTA. Blood samples were put on ice and centrifuged (2000 g for 5 minutes at 4° C.) to obtain plasma within 15 minutes after collection. Plasma samples were stored at approximately −80° C. freezer until analysis. For most of these analyses, Compound I (and Compound II) and the internal standard (IS) were extracted from rat, monkey or dog plasma by protein precipitation, and the extract was evaporated, reconstituted and analyzed using HPLC with tandem mass spectrometric detection (HPLC-MS/MS), see examples for further details. Calibration was accomplished by weighted linear regression of the ratio of the peak area of analyte to that of the added internal standard (IS). For the validated assay in rat and monkey EDTA plasma, the Lower Limit of Quantitation (LLOQ) for both compound 1 and 2 was 5.00 ng/mL, and the assay was linear from 5.00-1,000 ng/mL. PK parameters were calculated by non-compartmental analysis using WinNonlin (versions 4.1 through 6.1). 1) Weighed 922.80 mg of Form A of Compound I (equivalent to 824.603 mg of free base) into a clean tube. 2) Added 54.974 mL of 0.5% methylcellulose in saline into the tube containing the Form A of Compound I, vortexed for 3-5 min and sonicated for 10-15 min. The dosing solution was a light yellow and clear solution. Sprague Dawley rats, ˜7-9 weeks old and weighing ˜210-270 g, were given the above dosing solution at 5 mL/kg. […] Sample Preparation for Analysis: An aliquot of 30 μL of plasma sample was mixed with 30 μL of the IS (200 ng/mL), then mixed with 150 μL ACN for protein precipitation. The mixture was vortexed for 2 min and centrifuged at 12000 rpm for 5 min. An aliquot of 1 μL of supernatant was injected onto HPLC-MS/MS, if no further dilution was needed. To prepare a 10-fold diluted plasma samples, an aliquot of 10 μL plasma sample was mixed with 90 μL blank plasma to obtain the diluted plasma samples. The extraction procedure for diluted samples was as the same as that used for the non-diluted samples. • Compound Concentration Quantitation: • Instrument HPLC-MS/MS-12 (API4000), on positive ionization mode, ESI+ • HPLC Conditions Mobile Phase A: H2O—0.025% formic acid (FA)—1 mM NH4OAc • Mobile Phase B: MeOH—0.025% FA—1 mM NH4OAc Pharmacokinetic analysis was done using the WinNonlin software (Version 5.3, Pharsight Corporation, California, USA). Any concentration data under LLOQ (LLOQ=1.00 ng/mL in rat plasma and 3.00 ng/mL in rat liver homogenate) were replaced with “BQL”.

[2] = Stressing of Form A at ~40° C./~75% RH; format: physicochemical
Experimental: Form A samples were stressed at ˜40° C./˜75% relative humidity (RH) for 25-27 days. The samples were added to glass vials and then placed uncapped in jars containing saturated salt solutions. The jars were sealed and placed in an oven. […] XRPD patterns for this sample were collected with a PANalytical X'Pert PRO MPD diffractometer using an incident beam of Cu Kα radiation produced using a long, fine-focus source and a nickel filter. The diffractometer was configured using the symmetric Bragg-Brentano. Prior to the analysis, a silicon specimen (NIST SRM 640d) was analyzed to verify the Si 111 peak position. A specimen of the sample was packing into a nickel-coated copper well. Antiscatter slits (SS) were used to minimize the background generated by air. Soller slits for the incident and diffracted beams were used to minimize broadening from axial divergence. Diffraction patterns were collected using a scanning position-sensitive detector (X'Celerator) located 240 mm from the sample and Data Collector software v. 2.2b. […] TG′analysis was performed using a TA Instruments Q5000 IR and 2950 thermogravimetric analyzers. Temperature calibration was performed using nickel and Alumel™. Each sample was placed in an aluminum pan. Samples ran on TA Instruments 2950 were left uncapped and samples ran on Q5000 was hermetically sealed, the lid pierced, then inserted into the TG furnace. The furnace was heated under nitrogen. The sample was heated from 0° C. to 350° C., at 10° C./min.

[3] = Mean (N = 3), read-out: mean plasma concentration
[4] = Rat #1, read-out: plasma concentration
[5] = Rat #2, read-out: plasma concentration
[6] = Rat #3, read-out: plasma concentration

COC(=O)N[C@H](C(=O)N1CCC[C@H]1c1ncc(-c2ccc3cc(-c4ccc5nc([C@@H]6CCCN6C(=O)[C@@H](NC(=O)OC)C(C)C)[nH]c5c4)ccc3c2)[nH]1)C(C)C [Form A of Compound I]
concentration at 1 h [1, 3]: 5970 ng/mL | concentration at 1 h [1, 4]: 6210 ng/mL | concentration at 1 h [1, 5]: 5480 ng/mL | concentration at 1 h [1, 6]: 6230 ng/mL | concentration at 2 h [1, 3]: 7430 ng/mL | concentration at 2 h [1, 4]: 8030 ng/mL | concentration at 2 h [1, 5]: 7890 ng/mL | concentration at 2 h [1, 6]: 6380 ng/mL | concentration at 3 h [1, 3]: 8340 ng/mL | concentration at 3 h [1, 4]: 5670 ng/mL | concentration at 3 h [1, 5]: 8060 ng/mL | concentration at 3 h [1, 6]: 11300 ng/mL | concentration at 4 h [1, 3]: 3930 ng/mL | concentration at 4 h [1, 4]: 3680 ng/mL | concentration at 4 h [1, 5]: 5170 ng/mL | concentration at 4 h [1, 6]: 2930 ng/mL | concentration at 6 h [1, 3]: 2850 ng/mL | concentration at 6 h [1, 4]: 2780 ng/mL | concentration at 6 h [1, 5]: 3370 ng/mL | concentration at 6 h [1, 6]: 2400 ng/mL | concentration at 8 h [1, 3]: 531 ng/mL | concentration at 8 h [1, 4]: 498 ng/mL | concentration at 8 h [1, 5]: 704 ng/mL | concentration at 8 h [1, 6]: 390 ng/mL | concentration at 12 h [1, 3]: 176 ng/mL | concentration at 12 h [1, 4]: 188 ng/mL | concentration at 12 h [1, 5]: 277 ng/mL | concentration at 12 h [1, 6]: 63.6 ng/mL | concentration at 24 h [1, 3]: 8.07 ng/mL | concentration at 24 h [1, 4]: 8.12 ng/mL | concentration at 24 h [1, 5]: 7.95 ng/mL | concentration at 24 h [1, 6]: 8.15 ng/mL | Hygroscopicity (in words) ([2]; stressed ~40° C./~75% RH 27 days vs unstressed material): hygroscopic at high RH | Thermogravimetric weight loss after stressing ([2]; ~40° C./~75% RH, after 27 days, from 25-225° C., equivalent to 5 moles of water): ~10% | Solid form by XRPD after stressing ([2]; ~40° C./~75% relative humidity, uncapped, after 25 days): remained Form A
